# From ChEMBL document CHEMBL1821550 (Bioorg Med Chem Lett, 2011)
# Assay: physchem
# Settings: octanol/water
row,SMILES,logD
1,COc1ccc2c(=O)n(-c3ccc(OCCCN4CCCC4)cc3)c(C)nc2c1,1.7
2,COc1ccc2c(=O)n(C)c(-c3ccc(OC4CCN(C5CCC5)CC4)cc3)nc2c1,2.2
3,COc1cc(-c2cnc3nc(N4CCC(N5CCCCC5)CC4)sc3c2)ccn1,1.4
4,C[C@@H]1CCCN1CCc1ccc(-c2ccc(S(=O)(=O)NC3CCOCC3)cc2)cc1,1.8
5,c1ncc(-c2cnc3nc(N4CCC(N5CCCCC5)CC4)sc3c2)cn1,0.3
6,CCCNS(=O)(=O)c1ccc(-c2ccc(CCN3CCC[C@H]3C)cc2)cc1,2.8
7,C[C@@H]1CCCN1CCc1ccc(-c2ccc(S(=O)(=O)NCc3ccncc3)cc2)cc1,2.4
8,CC1CCCN1CCc1ccc2nc(-c3cccs3)ccc2c1 (stereo unspecified),3.6
9,Cn1c(-c2ccc(OC3CCN(C4CCC4)CC3)cc2)nc2c(F)cccc2c1=O,2.4
10,O=C(NCc1ccc(C(F)(F)F)cc1)N1CCC[C@H]1CN1CCCC1,1.8
11,Cn1c(-c2ccc(OCCCN3CCCCC3)cc2)nc2ccccc2c1=O,2.2
12,O=c1c2ccccc2ncn1-c1ccc(OCCCN2CCCC2)cc1,1.6
13,c1cc(C2CCCCC2)ccc1OCCCN1CCCCC1,3.6
14,Cc1ccc2c(=O)n(-c3ccc(OCCCN4CCCC4)cc3)c(C)nc2c1,2.2
15,CCOC(=O)c1ccc(-c2ccc(OCCCN3CCCCC3)cc2)cc1,3.1
16,c1cc(C2=NCCO2)ccc1OCCCN1CCCCC1,1.3
17,c1cc(C2CCCO2)ccc1OCCCN1CCCCC1 (stereo unspecified),1.7
18,CC(=O)Nc1ccc(-c2cc3sc(N4CCC(N5CCCCC5)CC4)nc3cn2)cn1,0.8
19,C[C@@H]1Sc2ccccc2O[C@@H]1c1ccc(OCCCN2CCCC2)cc1,3.3
20,Cc1nc(-c2cccnc2)sc1-c1ccc2cc(CCN3CCC[C@H]3C)ccc2n1,3.5
21,C[C@@H]1CCCN1CCc1ccc2nc(C3=NCCS3)ccc2c1,2.7
22,C[C@@H]1CCCN1CCc1ccc2nc(-c3c(O)ccnc3C(F)(F)F)ccc2c1,3.6
23,CN(Cc1ccc(-c2ccccc2)cc1)C(=O)N1CCC[C@H]1CN1CCCC1,2.6

row,SMILES,logD
1,C[C@@H]1CCCN1CCc1cc2cc(-c3ccc(C#N)cc3)ccc2o1,3.2
2,C[C@@H]1CCCN1CCc1ccc2nc(-c3ccc4nccnc4c3)ccc2c1,3.1
3,C[C@@H]1CCCN1CCc1ccc2nc(-c3csc(-c4ccc(OCC(F)(F)F)nc4)n3)ccc2c1,4.8
4,N#Cc1cncc(-c2cnc3nc(N4CCC(N5CCCCC5)CC4)sc3c2)c1,0.8
5,O=C(N1CCN(C2CCCC2)CC1)N1Cc2ccccc2C1,1.1
6,CCOc1ccc(-n2ncc(-c3ccc4cc(CCN5CCC[C@H]5C)ccc4n3)c2C)nn1,3.8
7,C[C@@H]1CCCN1CCc1ccc(-c2ccc(S(=O)(=O)NC3CCC3)cc2)cc1,2.9
8,C[C@@H]1CCCN1CCc1ccc2nc(-c3ccc(C#N)s3)ccc2c1,3.8
9,c1ncc(-c2ccc(OCCCN3CCCCC3)cc2)o1,1.1
10,Cc1c(-c2ccc3cc(CCN4CCC[C@H]4C)ccc3n2)cnn1-c1ccc(Cl)c(Cl)c1,5.4
11,Cc1c(-c2ccc(Cl)cc2)noc1-c1ccc2cc(CCN3CCC[C@H]3C)ccc2n1,5.5
12,CC(C)N1CCN(C(=O)N2CCC(C(=O)N3CC4CCC(CC4)C3)CC2)CC1,0.9
13,O=C(C1CC(Oc2ccc(F)cc2)CN1)N1CCCN(C2CCC2)CC1 (stereo unspecified),0.2
14,COc1cccc2c1S(=O)(=O)C(C)C(c1ccc(OCCCN3CCCC3)cc1)O2 (stereo unspecified),2.2
15,Fc1cc(-c2cc3sc(N4CCC(N5CCCCC5)CC4)nc3cn2)ccn1,1.7
16,c1cc(C2CCCCO2)ccc1OCCCN1CCCCC1 (stereo unspecified),2.1
17,C[C@@H]1CCCN1CCc1ccc2nc(-c3cccnc3)ccc2c1,2.5
18,Cc1nc(N2CCCC2)ncc1-c1ccc2cc(CCN3CCC[C@H]3C)ccc2n1,2.7
19,C[C@@H]1CCCN1CCc1ccc(-c2ccc(S(N)(=O)=O)cc2)cc1,1.8
20,COc1ccccc1-c1ccc(OCCCN2CCCCC2)cc1,2.9
21,C[C@@H]1CCCN1CCc1ccc2nc(-c3ccn[nH]3)ccc2c1,2.4
22,COc1cccc2c1OC(c1ccc(OCCCN3CCC[C@H](C)C3)cc1)C(C)S2(=O)=O (stereo partly specified),3.3
23,C[C@@H]1CCCN1CCc1ccc2nc(-c3nccs3)ccc2c1,2.5

row,SMILES,logD
1,O=C(N1CCN(C2CC2)CC1)N1Cc2ccccc2C1,0.1
2,CCCn1c(-c2ccc(OCCCN3CCCCC3)cc2)nc2ccccc2c1=O,3.1
3,Cc1ccc(-c2ccc3cc(CCN4CCC[C@H]4C)ccc3n2)cn1,2.8
4,O=C(C1CC(Oc2ccc(Cl)cc2)CN1)N1CCCN(C2CCC2)CC1 (stereo unspecified),0.6
5,Cc1cccc2c(=O)n(-c3ccc(OCCCN4CCCC4)cc3)c(C)nc12,2.2
6,Cc1cccc2c(=O)n(C)c(-c3ccc(OC4CCN(C5CCC5)CC4)cc3)nc12,2.7
7,CC1CCCN1CCc1ccc2nc(-c3ccoc3)ccc2c1 (stereo unspecified),2.7
8,Fc1ccc(-c2cnc3nc(N4CCC(N5CCCCC5)CC4)sc3c2)cn1,1.5
9,CCCc1nc2ccccc2c(=O)n1-c1ccc(OCCCN2CCCC2)cc1,2.8
10,Cn1nccc1-c1ccc(OCCCN2CCCCC2)cc1,1.8
11,N#Cc1ccc(OC2CNC(C(=O)N3CCCN(C4CCCC4)CC3)C2)cc1 (stereo unspecified),0.6
12,Nc1cnc(-c2cc3sc(N4CCC(N5CCCCC5)CC4)nc3cn2)cn1,0.2
13,Fc1ccc(-c2cc3sc(N4CCC(N5CCCCC5)CC4)nc3cn2)cn1,1.7
14,O=C(C1CC(Oc2cccc(Cl)c2)CN1)N1CCCN(C2CCC2)CC1 (stereo unspecified),0.6
15,Cc1[nH]ncc1-c1ccc2cc(CCN3CCC[C@H]3C)ccc2n1,2.4
16,Cc1nc(-c2cnccn2)sc1-c1ccc2cc(CCN3CCC[C@H]3C)ccc2n1,2.7
17,CCOC(=N)c1ccc(-c2ccc3cc(CCN4CCC[C@H]4C)ccc3n2)s1,4.1
18,COc1cccc2c1OC(c1ccc(OC3CCN(C4CCC4)CC3)cc1)C(C)S2(=O)=O (stereo unspecified),3.3
19,C[C@@H]1CCCN1CCc1ccc2nc(-c3ccncc3)ccc2c1,2.5
20,Cc1cc2ncc(-c3ccc4cc(CCN5CCC[C@H]5C)ccc4n3)c(C)n2n1,2.5
21,Cn1c(-c2ccc(OC3CCN(C4CCC4)CC3)cc2)nc2c(C(F)(F)F)cccc2c1=O,3.1
22,Cc1nc(-c2ccccn2)sc1-c1ccc2cc(CCN3CCC[C@H]3C)ccc2n1,3.9
23,COC(=O)c1c(C)noc1-c1ccc2cc(CCN3CCC[C@H]3C)ccc2n1,2.5

row,SMILES,logD
1,CC1COCC(C)N1S(=O)(=O)c1ccc(-c2ccc(CCN3CCC[C@H]3C)cc2)cc1 (stereo partly specified),2.6
2,C[C@@H]1CCCN1CCc1ccc2nc(-c3cn[nH]c3)ccc2c1,2.1
3,COC1CCN(S(=O)(=O)c2ccc(-c3ccc(CCN4CCC[C@H]4C)cc3)cc2)CC1,2
4,c1coc(-c2ccc(OCCCN3CCCCC3)cc2)c1,2.3
5,C[C@@H]1CCCN1CCc1ccc(-c2ccc(S(=O)(=O)N3CCS(=O)(=O)CC3)cc2)cc1,1.6
6,Cc1nc(-c2cccs2)sc1-c1ccc2cc(CCN3CCC[C@H]3C)ccc2n1,4.6
7,CCC(CO)NS(=O)(=O)c1ccc(-c2ccc(CCN3CCC[C@H]3C)cc2)cc1 (stereo partly specified),2.3
8,COc1ccc2c(c1)OC(c1ccc(OCCCN3CCCC3)cc1)C(C)S2(=O)=O (stereo unspecified),2.2
9,N#Cc1cc(-c2cnc3nc(N4CCC(N5CCCCC5)CC4)sc3c2)ccc1F,2.1
10,c1ncc(-c2cc3sc(N4CCC(N5CCCCC5)CC4)nc3cn2)cn1,0.5
11,Cn1c(-c2ccc(OC3CCN(C4CCC4)CC3)cc2)nc2c(Cl)cccc2c1=O,2.8
12,C[C@@H]1CCCN1CCc1ccc2nc(-c3c(-c4ccccc4)nn(C)c3Cl)ccc2c1,4.7
13,COC(=O)N1CC(Oc2ccc(F)cc2)CC1C(=O)N1CCCN(C2CCC2)CC1 (stereo unspecified),1.8
14,C[C@@H]1CCCN1CCc1ccc2nc(-c3ccccn3)ccc2c1,2.9
15,COc1cccc2c1OC(c1ccc(OCCCN3CCCCC3)cc1)C(C)S2(=O)=O (stereo unspecified),2.7
16,COc1cccc2c1OC(c1ccc(OCCCN3CCC[C@H]3C)cc1)C(C)S2(=O)=O (stereo partly specified),2.6
17,COc1cccc2c(=O)n(C)c(-c3ccc(OC4CCN(C5CCC5)CC4)cc3)nc12,2.2
18,Cc1ccc(-c2cc3sc(N4CCC(N5CCCCC5)CC4)nc3cn2)cn1,1.4
19,Cc1nc2ncccc2cc1-c1ccc2cc(CCN3CCC[C@H]3C)ccc2n1,3.1
20,Nc1ccc(-c2cnc3nc(N4CCC(N5CCCCC5)CC4)sc3c2)cn1,0.7
21,Cc1ccc(-c2ccc3cc(CCN4CCC[C@H]4C)ccc3n2)c(C)n1,3.1
22,Cc1nc2ccc(F)cc2c(=O)n1-c1ccc(OCCCN2CCCC2)cc1,1.9
23,Cc1nc(C)c(-c2ccc3cc(CCN4CCC[C@H]4C)ccc3n2)o1,2.4

row,SMILES,logD
1,c1cc(-c2ccc3c(c2)OCO3)ccc1OCCCN1CCCCC1,2.7
2,Cc1c(-c2ccc3cc(CCN4CCC[C@H]4C)ccc3n2)cnn1-c1ccc(N(C)C)nn1,3
3,c1csc(-c2ccc(OCCCN3CCCCC3)cc2)c1,2.8
4,Cc1nc2ccccn2c1-c1ccc2cc(CCN3CCC[C@H]3C)ccc2n1,3.2
5,C[C@@H]1CCCN1CCc1ccc2nc(-c3csc(-c4cc(Cl)nc(Cl)c4)n3)ccc2c1,5
6,C[C@@H]1CCCN1CCc1ccc2nc(C(C)(C)C)ccc2c1,3.6
7,Cc1nc2ccccc2c(=O)n1-c1ccc(OCCCN2CCCC2)cc1,1.7
8,Cc1cc(-c2ccc3cc(CCN4CCC[C@H]4C)ccc3n2)nc(-c2ccccc2)n1,4.2
9,Cn1c(-c2ccc(OCCCN3CCCC3)cc2)nc2ccccc2c1=O,1.8
10,COc1ccc2c(c1)S(=O)(=O)C(C)C(c1ccc(OCCCN3CCCC3)cc1)O2 (stereo unspecified),2.2
11,Nc1ccc(-c2cc3sc(N4CCC(N5CCCCC5)CC4)nc3cn2)cn1,0.9
12,Oc1ccc(-c2cc3sc(N4CCC(N5CCCCC5)CC4)nc3cn2)cn1,1.4
13,C[C@@H]1CCCN1CCc1ccc2nc(-c3cc(Br)no3)ccc2c1,3.4
14,C[C@@H]1CCCN1CCc1ccc2nc(-c3ccn4ncnc4n3)ccc2c1,2.5
15,COc1ccc2nc(-c3ccc(OC4CCN(C5CCC5)CC4)cc3)n(C)c(=O)c2c1,2.2
16,C[C@@H]1CCCN1CCc1ccc(-c2ccc(S(=O)(=O)NCC3CC3)cc2)cc1,2.8
17,Cc1c(-c2ccc3cc(CCN4CCC[C@H]4C)ccc3n2)cnn1C,2.5
18,Cc1nc(C)c(-c2ccc3cc(CCN4CCCC4C)ccc3n2)cc1C#N (stereo unspecified),2.9
19,c1ccc(-c2ccc(OCCCN3CCCCC3)cc2)cc1,2.9
